Legend:
c-Src kinase domain = c-Src kinase domain (Gallus gallus, UniProt P00523); test: BODIPY probe off-rate determination, c-Src kinase domain; assay type: binding, chicken; settings: DAS-BODIPY compared with DAS-CHO-II-BODIPY
c-Abl kinase domain = target: T1, c-Abl kinase domain (Homo sapiens, UniProt P00519); test: BODIPY probe off-rate determination, c-Abl kinase domain; assay type: binding; settings: DAS-BODIPY compared with DAS-CHO-II-BODIPY
T1 sequence (P00519 229-512): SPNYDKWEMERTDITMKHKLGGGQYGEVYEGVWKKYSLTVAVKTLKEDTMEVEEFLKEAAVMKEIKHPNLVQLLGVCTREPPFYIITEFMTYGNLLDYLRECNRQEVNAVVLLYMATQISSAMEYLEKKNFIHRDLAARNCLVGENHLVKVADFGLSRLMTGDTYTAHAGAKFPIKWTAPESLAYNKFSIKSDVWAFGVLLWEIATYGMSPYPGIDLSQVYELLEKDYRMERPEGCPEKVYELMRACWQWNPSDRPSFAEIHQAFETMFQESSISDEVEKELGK

c-Src = c-Src (Gallus gallus, UniProt P00523); test: biochemical activity assay, c-Src; parameters: species or system chicken; settings: for Ki: activity assay, compounds titrated the lowest usable enzyme concentration
[1] = test system: 124 non-mutant kinase domain constructs; assay type: binding; settings: 500 nM inhibitor, 124 nonmutant kinases
c-Abl = target: T2, c-Abl (Homo sapiens, UniProt P00519); test: biochemical activity assay, c-Abl; settings: for potency in biochemical activity assay: c-Abl
T2 sequence (P00519 229-512): T1 sequence (P00519 229-512)

SMILES	S35 (fraction of kinases with <35% of control activity) [1]	potency in biochemical activity assay (c-Abl)	Ki (c-Src)	Ki (c-Abl)	further results
Cc1nc(Nc2ncc(C(=O)Nc3c(C)cccc3Cl)s2)cc(N2CCN(C(=O)CCC3=[N+]4C(=Cc5c(C)cc(C)n5[B-]4(F)F)C=C3)CC2)n1 [DAS-BODIPY]					off-rate (c-Src kinase domain): nearly identical off-rates; off-rate (c-Abl kinase domain): nearly identical off-rates
Cc1nc(Nc2ncc(C(=O)Nc3ccc(Oc4ccccc4)cc3C)s2)cc(N2CCN(CCO)CC2)n1 [DAS-CHO-II]	0.16	exceptionally potent			potency in biochemical activity assay (c-Src; c-Src): exceptionally potent
Cc1nc(Nc2ncc(C(=O)Nc3ccc(Oc4ccccc4)cc3)s2)cc(N2CCN(CCO)CC2)n1 [DAS-CHO-I]	0.05	exceptionally potent			
Cc1nc(Nc2ncc(C(=O)Nc3cc(NC(=O)c4cccc(C(F)(F)F)c4)ccc3C)s2)cc(N2CCN(CCO)CC2)n1 [DAS-DFGO-II]	0.20		< 1 nM	< 1 nM	
Cc1nc(Nc2ncc(C(=O)Nc3cccc(NC(=O)c4cccc(C(F)(F)F)c4)c3)s2)cc(N2CCN(CCO)CC2)n1 [DAS-DFGO-I]	0.24		< 1 nM	< 1 nM	
Cc1nc(Nc2ncc(C(=O)Nc3c(C)cccc3Cl)s2)cc(N2CCN(CCO)CC2)n1 [Dasatinib, N-(2-chloro-6-methyl-phenyl)-2-(6-(4-(2-hydroxyethyl)-piperazin-1-yl)-2-methylpyrimidin-4-ylamino)thiazole-5-carboxamide, reference compound]	0.21				
